Results reported in ChEMBL document CHEMBL1159069, “[Lys(DOTA)4]BVD15, a novel and potent neuropeptide Y analog designed for Y1 receptor-targeted breast tumor imaging” (Bioorg Med Chem Lett, 2010).
pKi: −log10 of the molar value. Where “and” joins values, the source holds several entries; their conditions need not be identical. Equal values may be shown once. Where a SMILES comes first, the peptide text is derived from it. The star is where a group is joined. DOTA = O=C(O)CN1CCN(CC(=O)O)CCN(CC(=O)*)CCN(CC(=O)O)CC1

Experiments:
Assay type in all cases: cell-based; call rule not given here
[1] = biological target: T1, Neuropeptide Y receptor type 1 (Homo sapiens, UniProt P25929); assay: Displacement of [125I]NPY from human neuropeptide Y1 receptor expressed in human MCF7 cells after 40 mins; settings: for pKi: read-out: Ki
T1 sequence (P25929 whole entry): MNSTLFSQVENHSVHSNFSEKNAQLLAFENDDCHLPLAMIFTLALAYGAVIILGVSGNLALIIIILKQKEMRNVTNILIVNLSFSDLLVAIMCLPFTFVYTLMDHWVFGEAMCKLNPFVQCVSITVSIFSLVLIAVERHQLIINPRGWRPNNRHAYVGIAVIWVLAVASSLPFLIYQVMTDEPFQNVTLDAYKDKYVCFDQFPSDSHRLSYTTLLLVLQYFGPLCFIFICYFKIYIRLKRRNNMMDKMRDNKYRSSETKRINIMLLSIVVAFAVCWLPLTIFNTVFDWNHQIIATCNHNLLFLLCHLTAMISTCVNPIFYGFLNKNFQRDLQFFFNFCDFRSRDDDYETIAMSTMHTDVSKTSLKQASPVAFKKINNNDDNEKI

[2] = biological target: Neuropeptide Y receptor type 4 (Homo sapiens, UniProt P50391); assay: Displacement of [125I]Pancreatic polypeptide from human neuropeptide Y4 receptor in human HEK293 cells after 40 mins
[3] = biological target: T2, Neuropeptide Y receptor type 2 (Homo sapiens, UniProt P49146); assay: Displacement of [125I]PYY from human neuropeptide Y2 receptor expressed in human SK-N-BE2 cells after 40 mins
T2 sequence (P49146 whole entry): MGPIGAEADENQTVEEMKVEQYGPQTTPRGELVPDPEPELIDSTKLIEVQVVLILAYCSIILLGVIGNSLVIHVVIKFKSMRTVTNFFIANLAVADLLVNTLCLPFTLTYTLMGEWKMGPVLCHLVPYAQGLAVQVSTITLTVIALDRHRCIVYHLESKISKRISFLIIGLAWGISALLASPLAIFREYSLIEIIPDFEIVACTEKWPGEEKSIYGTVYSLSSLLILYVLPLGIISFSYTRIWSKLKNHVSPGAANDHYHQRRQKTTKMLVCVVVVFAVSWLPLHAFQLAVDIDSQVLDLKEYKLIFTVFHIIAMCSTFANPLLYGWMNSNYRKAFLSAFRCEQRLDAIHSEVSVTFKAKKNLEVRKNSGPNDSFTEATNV

Chain of Neuropeptide Y receptor type 4 (P50391 whole entry): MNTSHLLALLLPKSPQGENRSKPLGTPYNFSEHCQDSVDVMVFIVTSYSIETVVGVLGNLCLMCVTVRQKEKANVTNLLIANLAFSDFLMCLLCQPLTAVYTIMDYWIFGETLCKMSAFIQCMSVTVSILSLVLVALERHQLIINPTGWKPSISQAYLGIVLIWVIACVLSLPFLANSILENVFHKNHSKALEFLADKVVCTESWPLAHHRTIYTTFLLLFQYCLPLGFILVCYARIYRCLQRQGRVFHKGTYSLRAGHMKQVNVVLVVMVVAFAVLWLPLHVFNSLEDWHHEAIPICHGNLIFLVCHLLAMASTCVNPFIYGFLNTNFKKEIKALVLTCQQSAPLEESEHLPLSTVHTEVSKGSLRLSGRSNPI

CC(C)C[C@H](NC(=O)[C@H](CCCNC(=N)N)NC(=O)[C@H](Cc1ccc(O)cc1)NC(=O)[C@H](CCCCNC(=O)CN1CCN(CC(=O)O)CCN(CC(=O)O)CCN(CC(=O)O)CC1)NC(=O)[C@@H]1CCCN1C(=O)[C@@H](N)CC(N)=O)C(=O)N[C@@H](CCCNC(=N)N)C(=O)N[C@@H](Cc1ccc(O)cc1)C(=O)O (H-NPK(DOTA)YRLRY-OH)
Ki ([1]; mcf7): Not Active

H-IKPIYRLRY-NH2
pKi [1]: 6.89

H-INPIYRLRY-OH
pKi ([2]; read-out: Ki): 8.24 | pKi ([3]; read-out: Ki): 7.95 | pKi [1]: 8.30 and 7.41

CC[C@H](C)[C@H](N)C(=O)N[C@@H](CC(N)=O)C(=O)N1CCC[C@H]1C(=O)N[C@@H](CCCCNC(=O)CN1CCN(CC(=O)O)CCN(CC(=O)O)CCN(CC(=O)O)CC1)C(=O)N[C@@H](Cc1ccc(O)cc1)C(=O)N[C@@H](CCCNC(=N)N)C(=O)N[C@@H](CC(C)C)C(=O)N[C@@H](CCCNC(=N)N)C(=O)N[C@@H](Cc1ccc(O)cc1)C(N)=O
Ki ([2]; hek293): Not Active | Ki [3]: Not Active
